Measurements from ChEMBL document CHEMBL1201862, “PubChem BioAssay data set” (2004).
The source made the active and inactive calls.

Legend:
[1] = miR-122 activators in hepatoma reporter cells, dose response, cell-based, Huh7 psiCHECK-miR122, Renilla luciferase, cherry-picked (AID 651956); type: functional;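 also: huh7 hepatoma cells stably carrying a psiCHECK-2 miR-122 sensor plasmid; renilla luciferase signal reporting endogenous miR-122 activity after 48 h compound exposure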
[2] = HEK293T cytotoxicity, dose response, cytotoxicity control for miR-122 modulator project, cell-based, inhibitor set, cherry-pick, set 2 (AID 720697); type: functional
[3] = HEK293T cytotoxicity, dose response, cytotoxicity control for miR-122 modulator project, cell-based, activator set, cherry-pick (AID 720690); type: functional;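 also: HEK293T human cells scored for general mammalian cytotoxicity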
[4] = Vero E6 cell cytotoxicity, dose response, cytotoxicity control for non-replicating M. tuberculosis project, secondary assay (AID 492998); type: functional, VeroE6; conditions: Vero C1008
Streptococcus = assay: Group A Streptococcus viability loss, dose response, counter-screen for streptokinase expression inhibitor project, luminescence, BacTiterGlo (AID 1915); type: functional, organism-based;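 also: potency for reduction of bacterial viability or growth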
[5] = tested on: Streptococcus sp. 'group A'; assay: growth inhibition of control SK(-) GAS strain, dose response, counter-screen for streptokinase expression inhibitor project, luminescence, kanamycin, BacTiterGlo, confirmation (AID 1900); type: functional, organism-based
INS1 = assay: beta cell apoptosis inhibitors, cytokine rescue, dose response, luminescence, retest (AID 449756); type: functional, cell-based; conditions: Rattus norvegicus;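 also: cell death triggered by IL-1 beta plus TNF-alpha plus IFN-gamma mixture; protective hits raise ATP signal compared with cytokine alone wells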
[6] = THP-1 cell cytotoxicity, dose response, cytotoxicity control for non-replicating M. tuberculosis project (AID 489025); type: functional
cells [7] = type: functional
cells [8] = type: functional, cell-based
cells [9] = type: functional, cell-based; remark: listed apart in the source
[10] = inhibitors of intracellular T. cruzi replication, confirmation, NIH3T3 host cells, beta-gal luminescence (AID 2044); type: functional, cell-based;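 also: intracellular parasites grown in NIH/3T3 mouse fibroblasts as host cells; luminescent beta-galactosidase reporter signal from transgenic T. cruzi replicating inside host cells; inhibitors lower the luminescence signal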
[11] = cytotoxicity toward NIH3T3 fibroblasts, dose response, counter-screen, cell-based, ATP luminescence, mouse fibroblasts (AID 2010); type: functional;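 also: cells exposed to compound for about 90 hours before reading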
Cytochrome P450 3A4 = Cytochrome P450 3A4 (Homo sapiens, UniProt P08684); conditions: Potency;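 also: confirmatory qHTS run detecting inhibitors and substrates of CYP3A4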
[12] = molecular target: T1, Rac GTPase-activating protein 1 (Homo sapiens, UniProt Q9H0H5); assay: MgcRacGAP GTPase-activating activity inhibitors, confirmation, biochemical, ADP Hunter fluorescence, primary and confirmatory (AID 624330); type: functional
T1 sequence (Q9H0H5 whole entry): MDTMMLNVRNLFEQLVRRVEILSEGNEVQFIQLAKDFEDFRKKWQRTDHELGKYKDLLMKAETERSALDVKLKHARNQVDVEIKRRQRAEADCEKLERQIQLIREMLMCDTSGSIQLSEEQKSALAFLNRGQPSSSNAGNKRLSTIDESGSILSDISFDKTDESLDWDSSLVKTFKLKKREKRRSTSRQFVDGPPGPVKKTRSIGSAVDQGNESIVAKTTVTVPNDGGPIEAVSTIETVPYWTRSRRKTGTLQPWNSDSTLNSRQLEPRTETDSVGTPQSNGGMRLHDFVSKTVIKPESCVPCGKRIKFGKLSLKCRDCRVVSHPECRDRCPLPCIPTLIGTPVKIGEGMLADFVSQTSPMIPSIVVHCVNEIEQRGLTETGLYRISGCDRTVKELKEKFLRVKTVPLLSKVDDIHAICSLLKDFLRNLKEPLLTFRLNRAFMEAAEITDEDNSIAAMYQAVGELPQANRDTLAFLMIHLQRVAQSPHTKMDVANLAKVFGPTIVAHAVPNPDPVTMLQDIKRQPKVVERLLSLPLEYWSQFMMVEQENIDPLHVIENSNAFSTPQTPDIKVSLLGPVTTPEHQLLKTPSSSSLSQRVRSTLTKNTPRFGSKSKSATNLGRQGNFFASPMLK

fMet-Leu-Phe receptor = molecular target: T2, fMet-Leu-Phe receptor (Homo sapiens, UniProt P21462); assay: FPR ligands, dose response (AID 519); type: functional
T2 sequence (P21462 whole entry): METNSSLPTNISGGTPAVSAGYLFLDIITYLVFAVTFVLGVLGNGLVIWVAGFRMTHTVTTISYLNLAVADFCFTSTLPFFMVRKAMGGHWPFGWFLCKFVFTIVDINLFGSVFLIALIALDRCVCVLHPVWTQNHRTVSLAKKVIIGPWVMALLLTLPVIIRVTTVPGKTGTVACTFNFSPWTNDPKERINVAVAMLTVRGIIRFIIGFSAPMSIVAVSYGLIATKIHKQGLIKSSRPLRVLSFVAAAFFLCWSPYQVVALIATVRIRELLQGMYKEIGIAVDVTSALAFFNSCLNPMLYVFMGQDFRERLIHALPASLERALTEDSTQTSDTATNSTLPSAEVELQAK

cells [13] = assay: cells
[14] = molecular target: Disintegrin and metalloproteinase domain-containing protein 17 (Homo sapiens, UniProt P78536); assay: exosite inhibitors of ADAM17, dose response, biochemical (AID 743260)
[15] = ADAM10 protease inhibitors, dose response, selectivity assay for ADAM17 exosite inhibitor project, biochemical, FRET peptide substrate, recombinant human ADAM10 (AID 743259);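 also: ADAM10 enzyme cleaving a FRET peptide substrate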
[16] = HepG2 cell cytotoxicity, dose response, cytotoxicity control, ATP luminescence, cherry-pick, activator set 2 (AID 1053143); type: functional, cell-based

Sequence of Cytochrome P450 3A4 (P08684 whole entry): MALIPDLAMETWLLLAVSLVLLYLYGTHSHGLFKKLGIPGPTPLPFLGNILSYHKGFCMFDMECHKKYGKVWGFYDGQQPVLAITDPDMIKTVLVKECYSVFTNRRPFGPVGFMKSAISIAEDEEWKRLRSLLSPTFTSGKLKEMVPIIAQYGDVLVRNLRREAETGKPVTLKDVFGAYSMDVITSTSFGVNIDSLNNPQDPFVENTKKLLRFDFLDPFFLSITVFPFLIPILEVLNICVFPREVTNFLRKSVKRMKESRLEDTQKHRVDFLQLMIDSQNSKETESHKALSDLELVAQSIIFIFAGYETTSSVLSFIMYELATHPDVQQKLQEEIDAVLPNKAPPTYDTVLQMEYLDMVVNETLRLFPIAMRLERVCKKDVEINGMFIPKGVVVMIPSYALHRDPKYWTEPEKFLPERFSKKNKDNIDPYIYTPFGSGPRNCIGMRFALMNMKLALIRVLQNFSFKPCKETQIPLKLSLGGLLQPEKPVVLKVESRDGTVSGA
Sequence of Disintegrin and metalloproteinase domain-containing protein 17 (P78536 whole entry, the tested form may be a part): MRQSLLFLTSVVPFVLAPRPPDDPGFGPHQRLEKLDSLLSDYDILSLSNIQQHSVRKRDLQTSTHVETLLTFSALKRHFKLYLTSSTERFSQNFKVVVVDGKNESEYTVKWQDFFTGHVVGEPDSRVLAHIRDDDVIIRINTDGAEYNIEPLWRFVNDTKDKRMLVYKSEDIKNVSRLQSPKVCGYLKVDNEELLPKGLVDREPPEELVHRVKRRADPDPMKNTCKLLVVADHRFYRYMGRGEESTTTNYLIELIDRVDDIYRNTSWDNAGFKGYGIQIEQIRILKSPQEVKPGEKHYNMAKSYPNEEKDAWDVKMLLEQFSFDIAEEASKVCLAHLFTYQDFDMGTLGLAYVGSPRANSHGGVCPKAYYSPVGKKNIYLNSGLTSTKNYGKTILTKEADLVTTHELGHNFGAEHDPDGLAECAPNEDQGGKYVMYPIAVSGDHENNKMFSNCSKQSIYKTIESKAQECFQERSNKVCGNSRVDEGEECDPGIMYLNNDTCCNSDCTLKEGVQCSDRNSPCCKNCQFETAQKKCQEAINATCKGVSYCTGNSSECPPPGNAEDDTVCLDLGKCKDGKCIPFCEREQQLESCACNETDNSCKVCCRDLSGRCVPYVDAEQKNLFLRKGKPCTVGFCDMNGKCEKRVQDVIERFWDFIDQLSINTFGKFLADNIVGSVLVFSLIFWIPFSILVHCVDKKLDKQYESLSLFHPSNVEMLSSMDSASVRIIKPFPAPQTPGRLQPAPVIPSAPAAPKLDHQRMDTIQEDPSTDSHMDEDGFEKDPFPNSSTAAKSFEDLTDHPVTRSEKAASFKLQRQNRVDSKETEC

CN1C(=O)c2cc(NC(=O)c3ccc(C(F)(F)F)cc3)ccc2OC[C@@H]2O[C@@H](CC(=O)NC3Cc4ccccc4C3)CC[C@@H]21
AC50 [1]: 4.71 µM (active) | AC50 [2]: < 0.195 µM (active) | AC50 [3]: 49.1 µM (active)

Oc1ccccc1/C=N/Nc1nc2ccccc2o1
CC50 [4]: 2.59 µM (active) | EC50 (Streptococcus): 4.17 µM (active) | EC50 [5]: 1.9 µM (active) | AC50 (INS1): 1.59 µM (active) | CC50 [6]: 1.68 µM (active) | IC50 (cells [7]): 33.3 µM (active) | EC50 (cells [8]): 4.02 µM (active) | EC50 (cells [9]): > 350 µM (not active) | EC50 [10]: 2.92 µM (active) | AC50 [2]: 2.53 µM (active) | EC50 [11]: > 60 µM (not active) | AC50 [3]: 5.79 µM (active)

Cc1cc(-c2ccc(N)c(C)c2)ccc1N [ORTHOTOLIDINE]
AC50 (Cytochrome P450 3A4): 20 µM (inconclusive) | IC50 [12]: 12.2 µM (active)

COc1ccc(-n2c(Cc3cccn3C)nnc2SCC(=O)Nc2ccc(Cl)cc2)cc1
Ki (fMet-Leu-Phe receptor): 32.9 µM (inactive)

COC(=O)C/C=C/C(C)C(OCc1cccc(-c2ccccc2)c1)C1CCCCC1 (centres undefined)
AC50 (Cytochrome P450 3A4): 3.98 µM (inconclusive)

O=C(Nc1ccncc1)Nc1ccc(Cl)cc1Cl
EC50 [10]: < 0.1 µM (active) | EC50 (cells [13]): 0.079 µM (active) | EC50 [11]: > 60 µM (not active)

Cc1ccc(C(C(=O)NC2CCCCC2)N(Cc2ccccc2)C(=O)Cc2c[nH]c3ccccc23)o1 (centres undefined)
IC50 [14]: > 69.5 µM (inactive) | IC50 [15]: 10.3 µM (inactive)

C=C(Cl)CSC(=S)N(CC)CC [SULFALLATE]
AC50 (Cytochrome P450 3A4): 10 µM (inconclusive)

Cc1ccc(C(=O)Nc2nc3ccc(S(C)(=O)=O)cc3s2)o1
AC50 [16]: 26 µM (active)

COc1ccc(CCNC(=O)c2cc(-c3ccco3)on2)cc1OC
EC50 (cells [8]): > 350 µM (not active) | AC50 [16]: 26 µM (active) | EC50 (cells [9]): 12.5 µM (active)
